The source of these data is patent publication US11382882B2 (priority 2010, dated 2022).

“Also recorded” adds a separate entry of the source.

Assay [1] has as its system MRSA strain USA300. Description: microbe, parasite or virus in culture. The conditions noted are these: Staphylococcus aureus, 6 h; for hemolysis at 1 µg/mL: read-out: ELISA α-hemolysin inhibition 1 μg/mL; for hemolysis at 10 µg/mL: read-out: ELISA α-hemolysin inhibition 10 μg/mL. (In general: ELISA stands for enzyme-linked immunosorbent assay.)
Assay [2] deals with α-hemolysin gene expression. It counts as cell-based, Staphylococcus aureus.
Assay [3] has as its system phenol-soluble modulin-a (psma) gene expression. Description: phenol-soluble modulin-a (psma) gene expression in MRSA strain USA300 (FIG. 4). The class given is cell-based, Staphylococcus aureus.
Assay [4] relates to AgrA gene expression. The experiment in a line: AgrA gene expression in MRSA strain USA300 (FIG. 5). The class given is cell-based, Staphylococcus aureus.
The test system of assay [5] is AgrC gene expression. Description: AgrC gene expression in MRSA strain USA300 (FIG. 6). The class given is cell-based, Staphylococcus aureus.
Assay [6] has as its system RNAIII gene expression. Description: RNAIII gene expression in MRSA strain USA300 (FIG. 7). The class given is cell-based, Staphylococcus aureus.
In assay [7] the test system is Streptococcus pyogenes.
Protocol: During the first phase of in vitro testing the concentration of the compounds was kept constant at 100 mg/L in 2% DMSO.
The test system of assay [8] is hla transcription. Description: hla transcription by qRT-PCR (FIG. 9A). The conditions noted are these: 6 h, versus DMSO; for transcription of hla (qRT-PCR, in words): 10 and 50 μg/ml, 37° C.
Protocol: (§1) The effect of the compounds VII, X, XII, and XV on the transcription of hla and RNAIII was measured by qRT-PCR. S. aureus USA300 was incubated at 37° C. for 6 h in the presence of 0, 10, or 50 μg/ml of the compounds. The cultures were harvested, and total RNA was isolated using the RiboPure—bacterial RNA isolation kit (Ambion) with additional DNase I treatment. RNA yield and purity were assessed by measuring the ratio of UV absorbance at 260 and 280 nm, and the integrity of the RNA was assessed on a 1% denaturing agarose gel. High integrity RNA had two clear bands without smearing, indicating no fragmentation of 23S and 16S rRNA.
(§2) Real-time RT-PCR reactions were conducted using a SYBR—green mix (Bio-Rad). The data were analyzed using the ΔΔC2 and are represented as log2 of the treated sample/control sample (DMSO only).
Assay [9] deals with RNAIII transcription. Description: RNAIII transcription by qRT-PCR (FIG. 9B). The conditions noted are these: 10 or 50 μg/ml; 37° C., 6 h; versus DMSO. Background: Real-time PCR tracks product formation cycle by cycle.
Protocol: as §1, §2

Turning to `O=C(O)c1c(F)c(F)cc2ccccc12` [III], in assay [1], the hemolysis at 1 µg/mL turned out to be 20.8 ± 3.5% and the hemolysis at 10 µg/mL is 28.3 ± 3.4%.

For `COc1cc(C(=O)N/N=C/c2cccc3ccccc23)ccc1O` [V], the α-hemolysin gene expression result in assay [2] was “inhibit”. Moreover, the “phenol-soluble modulin-a (psma) gene expression” value in assay [3] is recorded as “inhibit”. Moreover, in assay [4], the AgrA gene expression result is “inhibit”. For the same compound, in assay [5], the AgrC gene expression entry is “inhibit”. In [6], the RNAIII gene expression result is given as “inhibit”. Besides, in assay [7], the “rabbit blood hemolysis inhibition in Streptococcus pyogenes (in words)” value (“rabbit blood hemolysis inhibition” below) was “active”. In addition, in assay [1], the hemolysis at 1 µg/mL was 23 ± 1.3% and the hemolysis at 10 µg/mL stood at 88.4 ± 1.5%.

Consider `O=C(O)c1ccc(Oc2ccc(Cl)cc2)cc1` [XI], for which the hemolysis at 10 µg/mL in assay [1] amounted to 36.3 ± 8.2%.

For `COc1cc(O)c(C(=O)c2ccccc2)cc1S(=O)(=O)O` [IX], in [7], the “rabbit blood hemolysis inhibition” value was “active”. For the same compound, the hemolysis at 10 µg/mL in assay [1] turned out to be 41.9 ± 8.2%.

As for `O=C(c1ccccc1)c1ccc(O)cc1O` [XIV], in [1], the hemolysis at 10 µg/mL worked out at 26.7%.

`O=C(O)c1cccc(-c2ccccc2)c1O` [XV]: in assay [2], the α-hemolysin gene expression result was “inhibit”. The “phenol-soluble modulin-a (psma) gene expression” value in assay [3] is recorded as “inhibit”. Besides, the AgrA gene expression result in assay [4] was “inhibit”. In addition, the AgrC gene expression result in assay [5] was “inhibit”. Further, in assay [6], the RNAIII gene expression result is reported as “inhibit”. In addition, the “rabbit blood hemolysis inhibition” value in assay [7] is “active”. Further, in [1], the hemolysis at 1 µg/mL amounted to 49.4 ± 4.6% and the hemolysis at 10 µg/mL turned out to be 53 ± 5.9%.

`O=C(O)c1c(O)c(O)cc2ccccc12` [II]: the α-hemolysin gene expression result in [2] was “inhibit”. Besides, in assay [3], the “phenol-soluble modulin-a (psma) gene expression” value is on record as “inhibit”. In assay [4], the AgrA gene expression result was “inhibit”. Also, the AgrC gene expression entry in assay [5] is on record as “inhibit”. The RNAIII gene expression result in assay [6] is listed as “inhibit”. In addition, the “rabbit blood hemolysis inhibition” value in assay [7] is listed as “active”. In addition, in assay [1], the hemolysis at 1 µg/mL is 21.3 ± 5.2% and the hemolysis at 10 µg/mL was 76 ± 1.2%.

With `O=C(O)c1ccc(-c2ccc(O)c(F)c2)cc1` [VII], the α-hemolysin gene expression result in [2] is given as “inhibit”. For the same compound, the “phenol-soluble modulin-a (psma) gene expression” value in [3] is recorded as “inhibit”. Besides, the AgrA gene expression entry in [4] is “inhibit”. The AgrC gene expression result in assay [5] is on record as “inhibit”. The RNAIII gene expression result in assay [6] is listed as “inhibit”. Besides, the “rabbit blood hemolysis inhibition” value in [7] is “active”. Moreover, in [1], the hemolysis at 1 µg/mL was 31.3 ± 9% and the hemolysis at 10 µg/mL turned out to be 61 ± 14.8%. In addition, in [8], the “transcription of hla (qRT-PCR, in words)” value is on record as “reduced”.

On to `O=C1Nc2cccc3cc(O)cc1c23` [I], for which, in assay [1], the hemolysis at 1 µg/mL was 28 ± 4.4% and the hemolysis at 10 µg/mL was found to be 65 ± 2.5%.

`O=C(O)c1ccc(Oc2ccc(F)cc2)cc1` [XII]: the hemolysis at 10 µg/mL in [1] worked out at 29.1 ± 11%. The “transcription of hla (qRT-PCR, in words)” value in assay [8] is given as “reduced”.

Take `O=C(O)c1cc(-c2ccc(F)cc2F)ccc1O` [X, diflunisal, reference compound]: in assay [2], the α-hemolysin gene expression result is “inhibit”. In addition, the “phenol-soluble modulin-a (psma) gene expression” value in assay [3] was “inhibit”. The AgrA gene expression result in assay [4] is listed as “inhibit”. The AgrC gene expression entry in [5] was “inhibit”. Also, the RNAIII gene expression result in assay [6] was “inhibit”. For the same compound, the “rabbit blood hemolysis inhibition” value in assay [7] is recorded as “active”. Also, in assay [1], the hemolysis at 1 µg/mL came out at 33 ± 3.6% and the hemolysis at 10 µg/mL stood at 62.3 ± 1.8%. Moreover, the “reduction of hla expression” value in assay [8] (50 μg/mL) is given as approximately 3000 fold. In addition, the “transcription of hla (qRT-PCR, in words)” value in assay [8] is reported as “reduced”. Also, in assay [9], the “RNAIII expression (qRT-PCR, in words)” value is recorded as “significant reduction; also recorded: reduced”.

`O=C(O)c1cc(-c2cccc(F)c2)ccc1O` [XIII]: the hemolysis at 10 µg/mL in assay [1] stood at 35.6 ± 12.5%.

Take `O=C(/C=C/c1ccc2c(c1)OCO2)c1ccccc(=O)c1O` [IV]: in assay [1], the hemolysis at 1 µg/mL was 40.2 ± 5.2% and the hemolysis at 10 µg/mL turned out to be 73.6 ± 2.2%.

Regarding `O=C(O)c1ccc2cc(F)ccc2c1` [VIII], the hemolysis at 10 µg/mL in [1] came to 56.3 ± 1.7%.

As for `CCc1cc(C(=O)COc2ccccc2)c(O)cc1O` [VI], in assay [2], the α-hemolysin gene expression entry is recorded as “inhibit”. For the same compound, the AgrA gene expression entry in assay [4] is reported as “inhibit”. The “rabbit blood hemolysis inhibition” value in assay [7] is “active”. For the same compound, in [1], the hemolysis at 1 µg/mL was 55.2 ± 5.8% and the hemolysis at 10 µg/mL was determined as 76.3 ± 11.2%.

In the case of `O=C(O)c1ccc(-c2ccc(F)cc2)cc1` [XVI], the α-hemolysin gene expression entry in [2] is “inhibit”. In addition, the “phenol-soluble modulin-a (psma) gene expression” value in assay [3] is “inhibit”. Moreover, in [4], the AgrA gene expression result is “inhibit”. The AgrC gene expression entry in assay [5] is “inhibit”. For the same compound, the RNAIII gene expression result in assay [6] is “inhibit”. The “rabbit blood hemolysis inhibition” value in assay [7] was “active”. In addition, in assay [1], the hemolysis at 1 µg/mL was 0% and the hemolysis at 10 µg/mL came out at 68.8 ± 11.3%. In addition, the “transcription of hla (qRT-PCR, in words)” value in assay [8] is given as “reduced”.
